# Patent US20020016293A1 (priority 2000, published 2002)
# Where a name gives a salt, the structure may show the parent alone. Read-outs that look alike come from different tables or passages of the source. Non-standard residues stand in square brackets, D forms with d. Residues, ends and D or L forms follow the SMILES beside them. ξ: configuration not given here. *: point of attachment. NMeI = CC[C@H](C)[C@H](NC)C(=O)O; NMeξIle = CC[C@H](C)C(NC)C(=O)O; NMeD = CN[C@@H](CC(=O)O)C(=O)O; NMeV = CN[C@H](C(=O)O)C(C)C; Pip = O=C(O)[C@@H]1CCCCN1; Lac = C[C@H](O)C(=O)O; OtBu = CC(C)(C)O*
# How the values were obtained:
# [1] = cited from earlier work; for absorption (in words): oral unless stated
# p-glycoprotein [2] = conditions: cited from earlier work
# [3] = tested on: multidrug resistant cells; conditions: no change in nonresistant parental cells; cited from earlier work
# p-glycoprotein [4] = conditions: cited from earlier work; remark: listed apart in the source
# [5] = Plasma pharmacokinetics of flavopiridol and flavopiridol glucuronide in metastatic renal cancer patients (HPLC); type: in vivo, human
# Description: All patients had metastatic renal cancer. […] Written informed consent was obtained from each patient in accordance with institutional and Federal guidelines. […] Toxicity assessment was done according to the Cancer and Leukemia Group B (CALGB) expanded toxicity criteria. For grade 3 or greater diarrheal episodes, patients were given loperamide or diphenoxylate hydrochloride plus atropine sulfate (Lomotil®). If diarrhea continued, treatment with octreotide acetate was begun. […] Heparinized blood samples were drawn at 23, 47, and 71 h into the infusion. Plasma was separated immediately by centrifugation and stored at −70° C. until analysis. Chemicals were obtained from Fisher Scientific (Itasca, Ill.) and Sigma Chemical Co. (St. Louis, Mo.). Quantitation of flavopiridol and its glucuronide in plasma was performed by high-pressure liquid chromatography (HPLC). […] Louis, Mo.), and these samples were incubated for 2 h (25° C.) prior to the addition of acetonitrile. […] Human plasma for the preparation of calibration standards was purchased from the Blood Bank at the University of Chicago Hospitals. […] Plasma samples for pharmacokinetics were collected during the first cycle of treatment (at 23, 47, and 71 h). […] Data are expressed as median values and interquartile range (the range of values between the 25th and the 75th percentile of the distribution). Significance has been tested by two-sided statistical tests. […] Moreover, Fisher's exact test was used to assess the association of flavopiridol systemic metabolism with the development of diarrhea. The distribution of the metabolic ratios at 71 h was investigated by constructing a frequency distribution histogram.
# [6] = Diarrhea (CALGB expanded toxicity criteria) in patients given flavopiridol, by glucuronidation phenotype; type: in vivo, human
# Description: Toxicity assessment was done according to the Cancer and Leukemia Group B (CALGB) expanded toxicity criteria. For grade 3 or greater diarrheal episodes, patients were given loperamide or diphenoxylate hydrochloride plus atropine sulfate (Lomotil®). If diarrhea continued, treatment with octreotide acetate was begun.
# Data are expressed as median values and interquartile range (the range of values between the 25th and the 75th percentile of the distribution). Significance has been tested by two-sided statistical tests. […] For this analysis, the adjusted P<0.017 (0.05/3) was considered significant.
# Poor and extensive glucuronidators had metabolic ratios lower and higher than 1.2, respectively.
# [7] = FLAVO glucuronidation assay, normal human liver microsomes; type: in vitro ADME; conditions: pooled human liver microsomes, pH 7.4; pool of human liver microsomes, substrate 0.1 to 3 mM, Lineweaver-Burke
# Description: FLAVO glucuronidation assay. Reaction conditions were optimized using a range of substrate (0.02-1 mM), human liver microsomal protein (0.25-6 mg/ml) and UDPGA (2-10 mM) concentrations, as well as varying detergents (Brij 58, OLPC, CHAPS, Triton X-100, OLPC), and incubation times (0.5-4 h). […] The final incubation volume (250 μl) contained 50 mM tris-HCl (pH 7.4), 10 mM magnesium chloride, 0.5 mM FLAVO, 3 mg/ml protein, and 3 mM UDPGA. After incubation in a shaking water bath at 37° C. for 3 h, the reaction was terminated by the addition of 1 ml of acetonitrile. […] The supernatant was spiked with 100 μl of internal standard (100 μg/ml flavone in acetonitrile), and evaporated to dryness using nitrogen gas. Control experiments were performed simultaneously by omitting UDPGA. […] Aliquots (125 μl) were analyzed by high performance liquid chromatography (HPLC; Hitachi Instruments, Inc., San Jose, Calif., USA) with UV detection (265 nm). Reversed-phase chromatography was carried out using a μBondapak Phenyl column (10 μm, 3.9×300 mm; Waters Corporation, Milford, Mass., USA), and a μBondapak Phenyl guard-pak insert (Waters Corporation, Milford, Mass., USA).
# Data analysis and statistics. Results were expressed as mean ± standard deviation (SD) of a single experiment performed in triplicate. […]
# neoplastic cells = conditions: in vitro; cited from earlier work
# [8] = tested on: p-glycoprotein expressing cell lines; conditions: cited from earlier work
compound,measurement,setting,value
CCN1CCN(C(=O)N[C@@H](C(=O)N[C@@H]2C(=O)N3C(C(=O)O)=C(CSc4nnnn4C)CS[C@H]23)c2ccc(O)cc2)C(=O)C1=O [Cefoperazone],eliminated by biliary secretion,"[1]; human, in vivo",70%
same,eliminated by urinary excretion,"[1]; human, in vivo",30%
"CN(C)CCCN1c2ccccc2Sc2ccc(Cl)cc21 [Chlorpromazine hydrochloride, 10H-Phenothiazine-10-propanamine, 2-chloro-N,N-dimethyl-, mono hydrochloride]",volume of distribution after intramuscular administration,[1]; intramuscular,21.8 L/kg
"CCOC(=O)C(C)(C)Oc1ccc(Cl)cc1 [Clofibrate, propanoic acid, 2-(4-chlorophenoxy)-2-methyl-,ethyl ester]",half-life in anuria,[1]; anuria,over 100 hr
same,"half-life, average or usual value","[1]; human, in vivo",11 h
same,fraction metabolized,[1]; mostly to a glucuronide conjugate,About 60%
"O=C1CN=C(c2ccccc2Cl)c2cc([N+](=O)[O-])ccc2N1 [Clonazepam, 2H-1,4-Benzodiazepin-2-one, 5-(2-chlorophenyl)-1,3-dihydro-7-nitro-]",therapeutic plasma levels,"[1]; human, in vivo",20 to 80 ng/mL
OCCN1CCN(CCCN2c3ccccc3Sc3ccc(C(F)(F)F)cc32)CC1 [Fluphenazine hydrochloride],absorption (in words),[1],absorbed rapidly
"CCOC(=O)C1=C(C)NC(C)=C(C(=O)OC)C1c1cccc([N+](=O)[O-])c1 (centres unmarked) [Nitrendipine, 3,5-Pyridinedicarboxylic acid, 1,4-dihydro-2,6-dimethyl-4-(3-nitrophenyl)-, ethyl methyl ester]",bound to plasma protein,"[1]; human, in vivo",About 98%
same,"half-life, average or usual value","[1]; human, in vivo",12 h
"CCC1(c2ccccc2)C(=O)NC(=O)NC1=O [Phenobarbital, 2,4,6(1H,3H,5H)-Pyrimidinetrione, 5-ethyl-5-phenyl-]",fraction of an oral dose absorbed,"[1]; human, in vivo, po",Approximately 80%
same,therapeutic plasma levels,"[1]; human, in vivo",10000 to 30000 ng/mL
same,time to peak plasma levels,"[1]; human, in vivo",16 to 18 h
"O=C1NC(=O)C(c2ccccc2)(c2ccccc2)N1.[Na] [Phenytoin Sodium, 2,4-Imidazolidinedione, 5,5-diphenyl-, monosodium salt]",lethal plasma levels,"[1]; human, in vivo",~100 µg/mL
CCCN(CCC)S(=O)(=O)c1ccc(C(=O)O)cc1 [Probenecid],absorption (in words),[1],completely absorbed
CC(C)NCC(O)COc1cccc2ccccc12 (centres unmarked) [Propranolol],bound to plasma protein,"[1]; human, in vivo",Approximately 90%
same,variability in plasma concentrations after oral administration,[1]; inter-individual,approximately 20 fold
C=C[C@H]1C[N@@]2CC[C@H]1C[C@@H]2[C@@H](O)c1ccnc2ccc(OC)cc12 [Quinidine],elimination by hepatic biotransformation,"[1]; human, in vivo",50-60%
"COC(=O)[C@H]1[C@H]2C[C@@H]3c4[nH]c5cc(OC)ccc5c4CCN3C[C@H]2C[C@@H](OC(=O)c2cc(OC)c(OC)c(OC)c2)[C@@H]1OC [Reserpine, Yohimban-16-carboxylic acid, 11,17-dimethoxy-18-[(3,4,5-trimethoxybenzoyl)oxy]-, methyl ester, (3β, 16β, 17α, 18β, 20α)-]",absorption (in words),[1],absorbed poorly and erratically
CC[C@H](C)C1C(=O)N(C)[C@@H]([C@@H](C)CC)C(=O)NCC(=O)N(C)[C@@H](C(C)C)C(=O)N[C@@H](Cc2ccc(OC)cc2)C(=O)O[C@@H](C)C(=O)N2CCCC[C@H]2C(=O)N(C)[C@@H](C(C)C)C(=O)N[C@@H](C(C)C)C(=O)N(C)[C@@H](CC(=O)OC(C)(C)C)C(=O)N1C (some centres unmarked) [SDZ 280-446] (cyclo(G[NMeV]Y(Me)[Lac][Pip][NMeV]V[NMeD](OtBu)[NMeξIle][NMeI])),p-glycoprotein inhibition relative to verapamil,p-glycoprotein [2],stronger inhibitors than verapamil
"CC(C)(C)c1ccc(C(O)CCCN2CCC(C(O)(c3ccccc3)c3ccccc3)CC2)cc1 (stereo not drawn) [Terfenadine, 1-Piperidinebutanol, α-[4-(1,1-dimethylethyl)phenyl]-4-(hydroxydiphenylmethyl)-]",bound to plasma protein,"[1]; human, in vivo",97%
same,absorption (in words),[1],absorbed rapidly and almost completely
C[C@@H]1C[C@H]2[C@@H]3CCC4=CC(=O)C=C[C@]4(C)C3=CC[C@]2(C)[C@H]1C(=O)CN1CCN(c2cc(N3CCCC3)nc(N3CCCC3)n2)CC1 [Tirilazad],sensitization of resistant cells to killing by vinblastine,[3],66 fold
same,inhibition of photoaffinity labeling of p-glycoprotein relative to verapamil,p-glycoprotein [4],more effectively than does verapamil
"CN1CC[C@H](c2c(O[C@@H]3O[C@H](C(=O)O)[C@@H](O)[C@H](O)[C@H]3O)cc(O)c3c(=O)cc(-c4ccccc4Cl)oc23)[C@H](O)C1 [flavopiridol glucuronide, 7-O-β-glucopyranuronosyl-flavopiridol]",inter-patient variability of plasma level (coefficient of variation) at 23 h,"[5]; human, in vivo",83%
same,inter-patient variability of plasma level (coefficient of variation) at 47 h,"[5]; human, in vivo",102%
same,inter-patient variability of plasma level (coefficient of variation) at 71 h,"[5]; human, in vivo",107%
CN1CC[C@H](c2c(O)cc(O)c3c(=O)cc(-c4ccccc4Cl)oc23)[C@H](O)C1 [flavopiridol],inter-patient variability of plasma level (coefficient of variation) at 23 h,[5]; 23 h,81%
same,concentration at 23 h,"[5]; human, plasma, intravenous, 72 h-continuous infusion 50 mg/m2/day, first cycle, 23 h into the infusion, 22 patients, read-out: median plasma concentration (interquartile range) at 23 h",389 nM
same,concentration at 47 h,"[5]; human, plasma, intravenous, 72 h-continuous infusion 50 mg/m2/day, first cycle, 47 h into the infusion, read-out: median plasma concentration (interquartile range) at 47 h",412 nM
same,concentration at 71 h,"[5]; human, plasma, intravenous, 72 h-continuous infusion 50 mg/m2/day, first cycle, 71 h into the infusion, read-out: median plasma concentration (interquartile range) at 71 h",397 nM
same,extensive glucuronidators who did not develop diarrhea,[6]; extensive glucuronidators,73%
same,patients with grade 1 diarrhea,[6]; first cycle,Five
same,patients with grade 2 diarrhea,[6]; first cycle,six
same,patients with grade 3 diarrhea,[6]; first cycle,two
same,extensive glucuronidators who did not develop diarrhea,[6]; metabolic ratio at 71 h higher than 1.2,8 of 11
same,poor glucuronidators who developed diarrhea,[6]; metabolic ratio at 71 h lower than 1.2,10 of 11
same,diarrhea present in poor glucuronidators of flavopiridol,[6]; poor glucuronidators,91%
same,Km at 3 h,[7],642 µM
same,concentrations showing differential growth inhibitory activity,neoplastic cells,below 200 nM
Cc1ccc(C)c(OCCCC(C)(C)C(=O)O)c1 [gemfibrozil],plasma concentration after 2 hours,[1]; single dose 600 mg,about 15 Ug/ml
same,plasma concentration after 9 hours,[1]; single dose 600 mg,~5 Ug/ml
CC[C@H](C)[C@H]1O[C@]2(CC[C@@H]1C)C[C@@H]1C[C@@H](C/C=C(\C)[C@@H](O[C@H]3C[C@H](OC)[C@@H](O[C@H]4C[C@H](OC)[C@@H](O)[C@H](C)O4)[C@H](C)O3)[C@@H](C)/C=C/C=C3\CO[C@@H]4[C@H](O)C(C)=C[C@@H](C(=O)O1)[C@]34O)O2 [ivermectin],time to peak concentrations in plasma,[1]; oral administration,≤ 4 h
same,half-life,[1]; verapamil: normal persons,about 10 hours
OCCN1CCN(CC/C=C2\c3ccccc3Sc3ccc(C(F)(F)F)cc32)CC1 [trans-flupenthixol],potency for reversing MDR relative to equimolar concentrations of verapamil,[8],two- to three-fold more potent
same,"reversal of resistance to doxorubicin, vincristine, and colchicine",[8],fully reversed resistance
"benzothiazepin-4(5H)-one, 3-(acetyloxy)-5-[2-(dimethylamino)ethyl]-2,3-dihydro-2-(4-methoxyphenyl)-, (+)-cis-, monohydrochloride [Diltiazem]",bound to plasma protein,"[1]; human, in vivo",70-80%
same,drug appearing unchanged in the urine,"[1]; human, in vivo",Less than 4%
same,fraction of an oral dose absorbed,[1]; oral,80%
same,half-life,[1]; plasma/serum/elimination half-life as printed,about 4 hr
